Measured values published in publication PMC9181126, “Design, Synthesis, Molecular Docking Analysis and Biological Evaluations of 4-[(Quinolin-4-yl)amino]benzamide Derivatives as Novel Anti-Influenza Virus Agents” (International Journal of Molecular Sciences, 2022).

Tests used:
[1] = test system: influenza virus A/WSN/33 (H1N1); assay: Plaque inhibition assay in MDCK cells; assay type: cell-based; conditions: for IC50: MDCK cells; for inhibition at 100 µM: MDCK, concentration 100 µM, read-out: Plaque Inhibition Assay (A/WSN/33, H1N1) Inhibition Rate
A/PR/8 (H1N1) = assay: Plaque inhibition assay in MDCK cells; assay type: cell-based; conditions: Influenza A virus
A/HK/68 (H3N2) = assay: Plaque inhibition assay in MDCK cells; assay type: cell-based; conditions: Influenza A virus
influenza B virus = assay: Plaque inhibition assay in MDCK cells; assay type: cell-based
A/WSN/33, H1N1 = test system: A/WSN/33, H1N1; set-up: method as in PMID 25333287; conditions: cited from earlier work
in vitro [2] = assay type: cell-based, canine; conditions: dog
Summary of the method: (§1)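 Cells were seeded and compound medium added after 48 h, then incubated 72 h at 37 °C, 5% CO2. Viability was measured by MTT (4 h), then solubilization and absorbance at 620 nm after a further 3 h. DMSO-only wells were taken as 100% viable.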

MDCK cells = assay: in vitro; assay type: cell-based, canine; conditions: dog, 72 h
Summary of the method: as §1

in vitro [3] = assay type: cell-based; conditions: human
Summary of the method: as §1

HEK293T cells = assay: in vitro; assay type: cell-based; conditions: human, 72 h
Summary of the method: as §1

[4] = test system: influenza virus A/WSN/33 (H1N1); assay: microbe, parasite or virus in culture; assay type: cell-based; conditions: MDCK, 72 h; for inhibition at 12.5 µM / inhibition at 25 µM / inhibition at 50 µM / inhibition at 100 µM: H1N1|WSN, read-out: Antiviral activity in CPE assay; for EC50: read-out: Cytopathic Effect Assay (A/WSN/33, H1N1) EC50
[5] = target: ribonucleoprotein (RNP) of influenza virus (Influenza A virus, UniProt P15659); assay: cell-based; conditions: HEK-293T; concentration 100 µM; read-out: RNP Reconstitution Assay Inhibition Rate

Compound | CC50 at 72 h (in vitro [2]) [µM] | MDCK cells survival rate (MDCK cells; 12.5 µmol·L−1) [%] | MDCK cells survival rate (MDCK cells; 25 µmol·L−1) [%] | MDCK cells survival rate (MDCK cells; 50 µmol·L−1) [%] | MDCK cells survival rate (MDCK cells; 100 µmol·L−1) [%] | CC50 at 72 h (in vitro [3]) [µM] | HEK293T cells survival rate (HEK293T cells; 3.125 µmol·L−1) [%] | HEK293T cells survival rate (HEK293T cells; 6.25 µmol·L−1) [%] | HEK293T cells survival rate (HEK293T cells; 12.5 µmol·L−1) [%] | HEK293T cells survival rate (HEK293T cells; 25 µmol·L−1) [%] | HEK293T cells survival rate (HEK293T cells; 50 µmol·L−1) [%] | HEK293T cells survival rate (HEK293T cells; 100 µmol·L−1) [%] | inhibition at 12.5 µM [4] [%] | inhibition at 25 µM [4] [%] | inhibition at 50 µM [4] [%] | inhibition at 100 µM [4] [%] | EC50 [4] [µM] | inhibition at 100 µM [1] [%] | inhibition at 100 µM [5] [%] | melting point [°C] | further results
NC12CC3CC(CC(C3)C1)C2 [amantadine, reference compound] |  |  |  |  |  |  |  |  |  |  |  |  |  |  |  |  |  |  |  |  | IC50 [1]: > 100 µM; IC50 (A/PR/8 (H1N1)): 64.2 ± 7.21 µM; IC50 (A/HK/68 (H3N2)): 2.22 ± 0.57 µM; IC50 (influenza B virus): > 100 µM
CCN(CC)Cc1cc(Nc2ccnc3cc(Cl)ccc23)ccc1O [amodiaquine] |  |  |  |  |  |  |  |  |  |  |  |  |  |  |  |  |  |  |  |  | EC50 (A/WSN/33, H1N1): 6.3 µM
COc1ccccc1OCCNC(=O)c1ccc(Nc2ccnc3ccccc23)cc1 [Compound G19, N-{2-(2-Methoxyphenoxy)ethyl}-4-(quinolin-4-ylamino)benzamide] | > 100 | 90.89±5.31 | 93.23±8.08 | 102.17±1.95 | 111.55±9.83 | > 100 | 103.14±6.28 | 103.54±9.29 | 103.11±7.45 | 97.97±3.74 | 97.40±3.36 | 112.18±7.45 | 131 ± 11.1 | 132 ± 4.75 | 138 ± 9.95 | 122 ± 5.08 | < 10 | 82.3 | 13.9 | 319.5 to 320.2 | 
COc1ccccc1OCCNC(=O)c1ccc(Nc2ccnc3ccc(C(F)(F)F)cc23)cc1 [Compound G26, N-[2-(2-Methoxyphenoxy)ethyl]-4-{[6-(trifluoromethyl)quinolin-4-yl]amino}benzamide] | > 100 | 103.03±1.26 | 105.52±6.56 | 122.08±7.85 | 133.91±11.97 | > 100 | 104.54±2.55 | 83.92±2.40 | 78.70±2.98 | 74.64±5.24 | 72.10±1.56 | 70.01±9.07 | 15.7 ± 1.06 | 16.8 ± 2.11 | 36.8 ± 1.79 | 49.7 ± 6.09 | > 100 | < 10 | 22.6 | 225.3 to 227.3 | 
COc1ccccc1OCCNC(=O)c1ccc(Nc2ccnc3cc([N+](=O)[O-])ccc23)cc1 [Compound G23, N-[2-(2-Methoxyphenoxy)ethyl]-4-[(7-nitroquinolin-4-yl)amino]benzamide] | > 100 | 101.22±6.39 | 106.22±9.35 | 100.33±3.53 | 91.28±3.45 | > 100 | 93.57±3.31 | 96.34±4.31 | 95.29±3.05 | 89.02±3.47 | 96.62±7.74 | 88.11±4.02 | 146 ± 3.38 | 143 ± 6.11 | 119.8 ± 0.68 | 119 ± 7.71 | < 10 | 77.9 | 56.6 | 217 to 218.5 | 
COc1ccccc1OCCNC(=O)c1ccc(Nc2ccnc3cc(C(F)(F)F)ccc23)cc1 [Compound G07, N-[2-(2-Methoxyphenoxy)ethyl]-4-{[7-(trifluoromethyl)quinolin-4-yl]amino}benzamide] | > 100 | 140.55±9.82 | 115.87±11.06 | 256.24±17.89 | 115.75±5.12 | > 100 | 106.60±2.14 | 97.91±1.23 | 91.58±3.34 | 87.01±2.19 | 90.17±2.90 | 81.39±7.21 | 61.4 ± 6.86 | 78.2 ± 8.28 | 107 ± 2.43 | 112 ± 4.3 | 11.4 ± 1.89 | 95.9 | 80.7 |  | IC50 [1]: 0.23 ± 0.15 µM; IC50 (A/PR/8 (H1N1)): 11.4 ± 2.38 µM; IC50 (A/HK/68 (H3N2)): 7.51 ± 1.76 µM; IC50 (influenza B virus): 11 ± 1.16 µM
O=C(c1ccc(Nc2ccnc3cc(C(F)(F)F)ccc23)cc1)N1CCOCC1 [Compound G12, Morpholino{4-{[7-(trifluoromethyl)quinolin-4-yl]amino}phenyl}methanone] | > 100 | 92.77±4.37 | 137.81±3.21 | 130.46±5.65 | 120.48±10.37 | > 100 | 100.47±5.92 | 89.50±2.30 | 86.67±6.98 | 88.50±7.54 | 80.68±3.36 | 74.00±4.57 | 70.9 ± 4.82 | 97.6 ± 3.67 | 75.7 ± 9.49 | 76.7 ± 5.27 | > 100 | < 10 | 50 | 277.9 to 278.7 | 
COc1ccccc1OCCNC(=O)c1ccc(Nc2ccnc3cc(OC(F)(F)F)ccc23)cc1 [Compound G22, N-[2-(2-Methoxyphenoxy)ethyl]-4-{[7-(trifluoromethoxy)quinolin-4-yl]amino}benzamide] | > 100 | 95.78±2.47 | 99.56±3.73 | 104.22±9.18 | 118.12±6.49 | > 100 | 117.25±6.52 | 103.91±6.77 | 91.65±2.90 | 89.97±4.08 | 88.83±5.80 | 86.07±5.65 | 112 ± 6.15 | 108 ± 8.75 | 106 ± 5.94 | 97.4 ± 10.2 | < 10 | 20 | 43.9 | 229.5 to 230.7 | 
O=C(NCCCO)c1ccc(Nc2ccnc3cc(C(F)(F)F)ccc23)cc1 [Compound G05, N-(3-Hydroxypropyl)-4-{[7-(trifluoromethyl)quinolin-4-yl]amino}benzamide] | > 100 | 113.26±1.76 | 110.22±4.44 | 101.63±4.85 | 111.87±2.49 | > 100 | 106.06±4.46 | 109.11±25.17 | 96.82±2.21 | 95.07±1.76 | 93.06±1.61 | 122.90±10.09 | 42 ± 5.5 | 48.6 ± 2.31 | 50.2 ± 1.8 | 56 ± 4.37 | 40.9 ± 5.64 | 82.9 | 17.6 | 249.6 to 250.4 | 
